Data reported in patent US20230092890A1, “1, 3, 4-Oxadiazole derivative compounds as histone deacetylase 6 inhibitor, and the pharmaceutical composition comprising the same” (Chong Kun Dang Pharmaceutical Corp., priority 2019, published 2023).

Assays:
[1] = target: T1, HDAC6 human recombinant (Homo sapiens, UniProt Q9UBN7); test: HDAC enzyme activity inhibition (in vitro), HDAC6 assay; assay type: biochemical; details: samples at 0.1, 1, 10, 100 and 1000 nM; 37° C. 60 minutes; fluorescence Ex 390, Em 460; read-out: HDAC6 IC50
T1 construct: purchased Calbiochem 382180
T1 sequence (Q9UBN7 1-1215): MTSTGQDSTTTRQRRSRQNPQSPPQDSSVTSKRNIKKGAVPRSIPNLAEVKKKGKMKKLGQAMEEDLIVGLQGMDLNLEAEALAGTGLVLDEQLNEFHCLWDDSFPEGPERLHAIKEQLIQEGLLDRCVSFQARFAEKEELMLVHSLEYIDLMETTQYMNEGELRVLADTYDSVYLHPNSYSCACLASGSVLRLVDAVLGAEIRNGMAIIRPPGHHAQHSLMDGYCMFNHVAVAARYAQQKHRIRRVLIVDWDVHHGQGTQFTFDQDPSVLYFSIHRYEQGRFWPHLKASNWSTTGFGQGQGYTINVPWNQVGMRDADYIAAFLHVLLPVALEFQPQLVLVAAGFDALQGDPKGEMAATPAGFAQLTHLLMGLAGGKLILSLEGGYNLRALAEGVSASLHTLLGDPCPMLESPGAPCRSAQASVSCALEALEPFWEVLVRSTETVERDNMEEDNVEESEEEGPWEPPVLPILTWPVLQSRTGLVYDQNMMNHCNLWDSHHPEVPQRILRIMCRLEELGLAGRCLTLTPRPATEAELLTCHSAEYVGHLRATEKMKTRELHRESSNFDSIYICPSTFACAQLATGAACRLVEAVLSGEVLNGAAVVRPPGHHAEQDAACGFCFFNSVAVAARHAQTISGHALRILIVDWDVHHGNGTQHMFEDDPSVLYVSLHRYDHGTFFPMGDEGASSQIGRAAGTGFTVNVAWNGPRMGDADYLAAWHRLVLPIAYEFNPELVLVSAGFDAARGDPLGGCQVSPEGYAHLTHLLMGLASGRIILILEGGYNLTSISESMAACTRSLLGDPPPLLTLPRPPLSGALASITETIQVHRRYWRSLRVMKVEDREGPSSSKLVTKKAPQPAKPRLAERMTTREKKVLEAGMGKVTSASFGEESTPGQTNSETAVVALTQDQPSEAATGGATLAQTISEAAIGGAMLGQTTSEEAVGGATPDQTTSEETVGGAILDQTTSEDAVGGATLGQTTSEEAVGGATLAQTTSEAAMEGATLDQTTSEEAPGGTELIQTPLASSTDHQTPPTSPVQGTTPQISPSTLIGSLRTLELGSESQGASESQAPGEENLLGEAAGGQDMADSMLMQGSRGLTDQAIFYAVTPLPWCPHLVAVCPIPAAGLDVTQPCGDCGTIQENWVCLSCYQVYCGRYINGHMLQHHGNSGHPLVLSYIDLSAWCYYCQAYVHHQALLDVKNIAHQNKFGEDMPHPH
Procedure, shortened: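 HDAC6 human recombinant enzyme with fluorimetric substrate; […]. Reaction 60 min at 37° C, then developer 30 min at 37° C; fluorescence read at Ex 390/Em 460.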

[2] = target: T2, HDAC1 (Homo sapiens, UniProt Q13547); test: HDAC enzyme activity inhibition (in vitro), HDAC1 Fluorimetric Drug Discovery Assay Kit; assay type: biochemical; details: samples at 100, 1000 and 10000 nM; 37° C. 60 minutes; fluorescence Ex 390, Em 460; read-out: HDAC1 IC50
T2 construct: purchased Enzolifesciences BML-AK511
Procedure, shortened: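 Compound incubated with enzyme 60 min at 37° C, then developer 30 min at 37° C; fluorescence read at Ex 390/Em 460. HDAC1 via fluorimetric kit, compounds at 100, 1000 and 10000 nM; HDAC6 human recombinant, compounds at 0.1, 1, 10, 100 and 1000 nM.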

T2 sequence (Q13547 whole entry): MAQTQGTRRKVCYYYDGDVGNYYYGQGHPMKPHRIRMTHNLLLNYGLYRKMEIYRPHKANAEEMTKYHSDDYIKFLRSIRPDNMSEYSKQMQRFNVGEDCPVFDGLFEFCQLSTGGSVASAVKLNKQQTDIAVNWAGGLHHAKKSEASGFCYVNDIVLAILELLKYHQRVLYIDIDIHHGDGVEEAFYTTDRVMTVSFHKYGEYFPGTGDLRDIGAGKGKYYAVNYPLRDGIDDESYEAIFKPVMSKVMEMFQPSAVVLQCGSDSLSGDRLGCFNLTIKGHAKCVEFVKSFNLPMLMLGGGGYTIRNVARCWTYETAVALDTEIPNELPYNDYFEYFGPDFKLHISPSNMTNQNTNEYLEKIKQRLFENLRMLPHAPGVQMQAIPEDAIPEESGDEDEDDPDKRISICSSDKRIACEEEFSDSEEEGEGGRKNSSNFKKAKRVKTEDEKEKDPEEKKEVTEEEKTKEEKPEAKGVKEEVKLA

Compound | IC50 [1] [nM] | IC50 [2] [nM]
O=c1n(Cc2ccc(-c3nnc(C(F)F)o3)cn2)c2cc(F)c(-c3ccncc3)cc2n1CC1CCN(C2COC2)CC1 [Compound 291, 1-((5-(5-(difluoromethyl)-1,3,4-oxadiazole-2-yl)pyridine-2-yl)methyl)-6-fluoro-3-((1-(oxetan-3-yl)piperidine-4-yl)methyl)-5-(pyridine-4-yl)-1,3-dihydro-2H-benzo[d]imidazole-2-one] | 9 | > 10000
CN1CCC(n2c(=O)n(Cc3ccc(-c4nnc(C(F)F)o4)cc3F)c3cc(F)c(-c4ccccc4F)cc32)CC1 [Compound 116, 1-(4-(5-(difluoromethyl)-1,3,4-oxadiazole-2-yl)-2-fluorobenzyl)-6-fluoro-5-(2-fluorophenyl)-3-(1-methylpiperidine-4-yl)-1,3-dihydro-2H-benzo[d]imidazole-2-one] | 84 | > 10000
CN1CCC(n2c(=O)n(Cc3ccc(-c4nnc(C(F)F)o4)cc3F)c3ccc(C4CCN(S(C)(=O)=O)CC4)cc32)CC1 [Compound 158, 1-(4-(5-(difluoromethyl)-1,3,4-oxadiazole-2-yl)-2-fluorobenzyl)-3-(1-methylpiperidine-4-yl)-5-(1-(methylsulfonyl)piperidine-4-yl)-1,3-dihydro-2H-benzo[d]imidazole-2-one] | 138 | > 10000
CC(C)(C)OC(=O)N1CCC(c2ccc3c(c2)oc(=O)n3Cc2ccc(-c3nnc(C(F)F)o3)cn2)CC1 [Compound 307, tert-butyl 4-(3-((5-(5-(difluoromethyl)-1,3,4-oxadiazole-2-yl)pyridine-2-yl)methyl)-2-oxo-2,3-dihydrobenzo[d]oxazole-6-yl)piperidine-1-carboxylate] | 399 | > 10000
O=c1oc2cc(-c3ccc(N4CCNCC4)nc3)c(F)cc2n1Cc1ccc(-c2nnc(C(F)F)o2)cn1 [Compound 345, 3-((5-(5-(difluoromethyl)-1,3,4-oxadiazole-2-yl)pyridine-2-yl)methyl)-5-fluoro-6-(6-(piperazine-1-yl)pyridine-3-yl)benzo[d]oxazole-2(3H)-one] | 22 | > 10000
O=c1oc2cc(-c3cncc(N4CCOCC4)c3)c(F)cc2n1Cc1ccc(-c2nnc(C(F)F)o2)cn1 [Compound 348, 3-((5-(5-(difluoromethyl)-1,3,4-oxadiazole-2-yl)pyridine-2-yl)methyl)-5-fluoro-6-(5-morpholinopyridine-3-yl)benzo[d]oxazole-2(3H)-one] | 25 | > 10000
CC(C)N1CCC(n2c(=O)n(Cc3ccc(-c4nnc(C(F)F)o4)cc3F)c3cc(F)ccc32)CC1 [Compound 70, 3-(4-(5-(difluoromethyl)-1,3,4-oxadiazole-2-yl)-2-fluorobenzyl)-5-fluoro-1-(1-isopropylpiperidine-4-yl)-1,3-dihydro-2H-benzo[d]imidazole-2-one] | 31 | > 10000
O=c1n(Cc2ccc(-c3nnc(C(F)F)o3)cc2F)c2ccccc2n1C1CCN(C2COC2)C1 (centres unmarked) [Compound 21, 1-(4-(5-(difluoromethyl)-1,3,4-oxadiazole-2-yl)-2-fluorobenzyl)-3-(1-(oxetan-3-yl)pyrrolidine-3-yl)-1,3-dihydro-2H-benzo[d]imidazole-2-one] | 299 | > 10000
CN1CCC(n2cc(-c3ccc4c(c3)sc(=O)n4Cc3ccc(-c4nnc(C(F)F)o4)cn3)cn2)CC1 [Compound 353, 3-((5-(5-(difluoromethyl)-1,3,4-oxadiazole-2-yl)pyridine-2-yl)methyl)-6-(1-(1-methylpiperidine-4-yl)-1H-pyrazole-4-yl)benzo[d]thiazole-2(3H)-one] | 19 | > 10000
CN1CCC(n2c(=O)n(Cc3ccc(-c4nnc(C(F)F)o4)cc3F)c3ccc(-c4cccc(F)c4)cc32)CC1 [Compound 159, 1-(4-(5-(difluoromethyl)-1,3,4-oxadiazole-2-yl)-2-fluorobenzyl)-5-(3-fluorophenyl)-3-(1-methylpiperidine-4-yl)-1,3-dihydro-2H-benzo[d]imidazole-2-one] | 71 | > 10000
CC(C)(C)OC(=O)N1CCN(c2ncc(-c3cc4oc(=O)n(Cc5ccc(-c6nnc(C(F)F)o6)cn5)c4cc3F)cn2)CC1 [Compound 337, tert-butyl 4-(5-(3-((5-(5-(difluoromethyl)-1,3,4-oxadiazole-2-yl)pyridine-2-yl)methyl)-5-fluoro-2-oxo-2,3-dihydrobenzo[d]oxazole-6-yl)pyrimidine-2-yl)piperazine-1-carboxylate] | 672 | > 10000
CN1CCC(n2c(=O)n(Cc3ccc(-c4nnc(C(F)F)o4)cc3F)c3ccc(-c4ccco4)cc32)CC1 [Compound 140, 1-(4-(5-(difluoromethyl)-1,3,4-oxadiazole-2-yl)-2-fluorobenzyl)-5-(furan-2-yl)-3-(1-methylpiperidine-4-yl)-1,3-dihydro-2H-benzo[d]imidazole-2-one] | 54 | > 10000
CN1CCC(n2c(=O)n(Cc3ccc(-c4nnc(C(F)F)o4)cc3F)c3cc(F)c(-c4ccncc4)cc32)CC1 [Compound 118, 1-(4-(5-(difluoromethyl)-1,3,4-oxadiazole-2-yl)-2-fluorobenzyl)-6-fluoro-3-(1-methylpiperidine-4-yl)-5-(pyridine-4-yl)-1,3-dihydro-2H-benzo[d]imidazole-2-one] | 42 | > 10000
CN1CC(N2Cc3ccccc3N(Cc3ccc(-c4nnc(C(F)F)o4)cn3)C2=O)C1 [Compound 9, 1-((5-(5-(difluoromethyl)-1,3,4-oxadiazole-2-yl)pyridine-2-yl)methyl)-3-(1-methylazetidine-3-yl)-3,4-dihydroquinazoline-2(1H)-one] | 332 | > 10000
CN(C)CCn1c(=O)n(Cc2ccc(-c3nnc(C(F)F)o3)cn2)c2cc(F)c(-c3ccncc3)cc21 [Compound 327, 1-((5-(5-(difluoromethyl)-1,3,4-oxadiazole-2-yl)pyridine-2-yl)methyl)-3-(2-(dimethylamino)ethyl)-6-fluoro-5-(pyridine-4-yl)-1,3-dihydro-2H-benzo[d]imidazole-2-one] | 58 | > 10000
COC(=O)c1cc2ccc(-c3ccc4c(c3)n(C)c(=O)n4Cc3ccc(-c4nnc(C(F)F)o4)cn3)cc2[nH]1 [Compound 244, methyl 6-(1-((5-(5-(difluoromethyl)-1,3,4-oxadiazole-2-yl)pyridine-2-yl)methyl)-3-methyl-2-oxo-2,3-dihydro-1H-benzo[d]imidazole-5-yl)-1H-indole-2-carboxylate] | 74 | > 10000
O=c1n(Cc2ccc(-c3nnc(C(F)F)o3)cn2)c2cc(F)ccc2n1C1CCN(C2CC3(COC3)C2)CC1 [Compound 49, 1-(1-(2-oxaspiro[3.3]heptane-6-yl)piperidine-4-yl)-3-((5-(5-(difluoromethyl)-1,3,4-oxadiazole-2-yl)pyridine-2-yl)methyl)-5-fluoro-1,3-dihydro-2H-benzo[d]imidazole-2-one] | 35 | > 10000
Cc1ccc(-c2ccc3c(c2)n(Cc2ccc(-c4nnc(C(F)F)o4)cc2F)c(=O)n3C2CCN(C)CC2)o1 [Compound 124, 3-(4-(5-(difluoromethyl)-1,3,4-oxadiazole-2-yl)-2-fluorobenzyl)-5-(5-methylfuran-2-yl)-1-(1-methylpiperidine-4-yl)-1,3-dihydro-2H-benzo[d]imidazole-2-one] | 950 | > 10000
CC(=O)N1CCC(n2c(=O)n(Cc3ccc(-c4nnc(C(F)F)o4)cc3)c3cc(F)ccc32)CC1 [Compound 172, 1-(1-acetylpiperidine-4-yl)-3-(4-(5-(difluoromethyl)-1,3,4-oxadiazole-2-yl)benzyl)-5-fluoro-1,3-dihydro-2H-benzo[d]imidazole-2-one] | 34 | > 10000
